pIC50: −log10 of the molar value. “And” between values parts separate entries of the source, which are not always exact repeats. Identical values can stand only once.
Test: Biochemical Assay: Compounds were solubilized in DMSO and serially diluted, using 3-fold dilutions, into 100% DMSO at a concentration 50-fold greater than the desired assay concentration. Following dilution, 1 ul was added to an empty 96-well microtiter plate. PRMT5/MEP50 protein complex was combined with H4(1-21) peptide ([…]) in PRMT5 assay buffer (50 mM Tris pH 8.5, 50 mM NaCl, 5 mM MgCl2, 1 mM EDTA, 1 mM TCEP) and 44 ul was added to the microtiter plate containing compound. S-Adenosyl-L-methionine (SAM) was prepared by combining 3H labelled SAM with unlabelled SAM in PRMT5 assay buffer such that the final SAM concentration was 10 uM and the specific activity was 0.2 uCi/ul. The reaction was initiated by adding 5 ul of SAM stock to the microtiter plate. The final reaction conditions were 10 nM PRMT5/MEP50 complex, 200 nM peptide and 1 uM SAM. Following a 25 minute incubation at room temperature, the reaction was stopped with the addition of 100 uL of 20% TCA. The 3H-peptide product was captured using a 96-well filter plate (MSIPN4B, Millipore) and washed 5 times with PBS buffer. Scintillation fluid (100 ul) was added to the dried filter plate and counted in a liquid scintillation counter. IC50 values were determined by fitting the data to the standard 4-parameter dose response equation using Pfizer proprietary software.

**Q.** With `Cc1cc(N[C@H]2C[C@@H](Oc3ccc(F)cc3C#N)[C@H](O)[C@@H]2O)ncn1` as the molecule, how does the pIC50 read?
**A.** < 3.70

**Q.** With `Cc1ncnc2c1ccn2[C@@H]1C[C@H]([C@@H](CN)c2ccc(F)cc2)[C@@H](O)[C@H]1O` as the molecule, how does the pIC50 read?
**A.** 6.17

**Q.** With `Cc1cc(N[C@@H]2C[C@H](Oc3ccc(F)cc3C#N)[C@@H](O)[C@H]2O)ncn1` as the molecule, how does the pIC50 read?
**A.** < 3.70

**Q.** With `Cc1cn([C@@H]2C[C@H](Oc3ccc(F)c4c3CNCC4)[C@@H](O)[C@H]2O)c2ncnc(Cl)c12` as the molecule, how does the pIC50 read?
**A.** 9.00

**Q.** With `Nc1ncnc2c1c(F)cn2[C@@H]1C[C@H](Oc2cccc3c2CNCC3)[C@@H](O)[C@H]1O` as the molecule, how does the pIC50 read?
**A.** 8.10 and 7.55

**Q.** With `Cc1nc(N)nc2c1ccn2[C@@H]1C[C@@H]([C@H](O)c2ccc(F)c(F)c2)[C@@H](O)[C@H]1O` as the molecule, how does the pIC50 read?
**A.** 6.98

**Q.** With `Cc1ncnc2c1ccn2[C@@H]1C[C@H](Oc2ccc(F)cc2[C@@H](C)N)[C@@H](O)[C@H]1O` as the molecule, how does the pIC50 read?
**A.** 8.70

**Q.** With `CN(c1ccncn1)[C@@H]1C[C@@H]([C@H](O)c2ccc(F)c(F)c2)[C@@H](O)[C@H]1O` as the molecule, how does the pIC50 read?
**A.** 4.80

**Q.** With `Cc1ncnc(N(C)[C@@H]2C[C@@H]([C@H](O)c3ccc(F)c(F)c3)[C@@H](O)[C@H]2O)n1` as the molecule, how does the pIC50 read?
**A.** 4.53

**Q.** With `Cc1ncnc2c1ccn2[C@@H]1CC([C@](C)(O)c2ccc(F)cc2)[C@@H](O)[C@H]1O` (some centres not stated) as the molecule, how does the pIC50 read?
**A.** 4.77

**Q.** With `Cc1nccc(N[C@@H]2C[C@H]([C@H](O)c3ccc(F)c(F)c3)[C@@H](O)[C@H]2O)n1` as the molecule, how does the pIC50 read?
**A.** 6.82

**Q.** With `Nc1ncnc2c1ccn2[C@@H]1C[C@@H]([C@H](O)c2ccc(Cl)c(F)c2)[C@@H](O)[C@H]1O` as the molecule, how does the pIC50 read?
**A.** 7.15

**Q.** With `Cc1ncnc2c1ccn2[C@@H]1C[C@H]([C@@H](F)c2ccc(F)cc2)[C@@H](O)[C@H]1O` as the molecule, how does the pIC50 read?
**A.** 8.52

**Q.** With `CO[C@H]1C[C@H](n2ccc3c(C)ncnc32)[C@H](O)[C@@H]1O` as the molecule, how does the pIC50 read?
**A.** 5.24

**Q.** With `Cc1ncnc2c1ccn2[C@@H]1C[C@H](Oc2ccc(F)cc2[C@H](C)N)[C@@H](O)[C@H]1O` as the molecule, how does the pIC50 read?
**A.** 6.91

**Q.** With `COC(=O)c1cc(F)ccc1O[C@H]1C[C@@H](n2ccc3c(C)ncnc32)[C@H](O)[C@@H]1O` as the molecule, how does the pIC50 read?
**A.** 4.99

**Q.** With `Cc1ncnc2c1ccn2[C@H]1C[C@@H](Oc2ccccc2CN)[C@H](O)[C@@H]1O` as the molecule, how does the pIC50 read?
**A.** 7.60

**Q.** With `Cc1ncnc(N(C)[C@@H]2C[C@H]([C@@H](O)c3ccc(F)c(F)c3)[C@@H](O)[C@H]2O)n1` as the molecule, how does the pIC50 read?
**A.** 6.53

**Q.** With `Cc1cc(N[C@@H]2C[C@H]([C@@H](O)c3ccc(F)c(F)c3)[C@@H](O)[C@H]2O)ncn1` as the molecule, how does the pIC50 read?
**A.** 4.23

**Q.** With `O[C@@H]1[C@H](O)[C@@H]([C@@H](O)c2ccc(F)c(F)c2)C[C@H]1Nc1ncnc2[nH]ccc12` as the molecule, how does the pIC50 read?
**A.** 6.35

**Q.** With `Cc1ncnc2c1ccn2[C@@H]1C[C@H]([C@@H](O)c2ccc(F)cc2)[C@@H](O)[C@H]1O` as the molecule, how does the pIC50 read?
**A.** 6.54

**Q.** With `Cc1cc(N[C@@H]2C[C@H](Oc3ccccc3C#N)[C@@H](O)[C@H]2O)ncn1` as the molecule, how does the pIC50 read?
**A.** < 3.70

**Q.** With `CN(c1cc(N)ncn1)[C@@H]1C[C@H]([C@@H](O)c2ccc(F)c(F)c2)[C@@H](O)[C@H]1O` as the molecule, how does the pIC50 read?
**A.** 6.06

**Q.** With `CN(c1ncnc(N)n1)[C@@H]1C[C@H]([C@@H](O)c2ccc(F)c(F)c2)[C@@H](O)[C@H]1O` as the molecule, how does the pIC50 read?
**A.** 6.58

**Q.** With `Cc1ncnc2c1ccn2[C@@H]1C[C@H]([C@H](F)c2ccc(F)cc2)[C@@H](O)[C@H]1O` as the molecule, how does the pIC50 read?
**A.** 6.66

**Q.** With `Cc1cc(N[C@@H]2C[C@H]([C@H](O)c3ccc(F)c(F)c3)[C@@H](O)[C@H]2O)ncn1` as the molecule, how does the pIC50 read?
**A.** 5.45

**Q.** With `Cc1nc(N)c2c(C)cn([C@@H]3C[C@H](Oc4cc(F)c(F)c5c4CNCC5)[C@@H](O)[C@H]3O)c2n1` as the molecule, how does the pIC50 read?
**A.** 9.00

**Q.** With `Cc1ncnc2c1ccn2[C@@H]1C[C@H]([C@](F)(CN)c2ccc(F)cc2)[C@@H](O)[C@H]1O` as the molecule, how does the pIC50 read?
**A.** 4.72

**Q.** With `Cc1ncnc2c1ccn2[C@@H]1CC([C@@](C)(O)c2ccc(F)cc2)[C@@H](O)[C@H]1O` (some centres not stated) as the molecule, how does the pIC50 read?
**A.** 7.19

**Q.** With `Cc1ncnc2c1ccn2[C@@H]1C[C@H](Oc2ccccc2CN)[C@@H](O)[C@H]1O` as the molecule, how does the pIC50 read?
**A.** 5.98

**Q.** With `O[C@@H]1[C@H](O)[C@@H](Oc2cccc3c2CNCC3)C[C@H]1n1cc(F)c2c(Cl)ncnc21` as the molecule, how does the pIC50 read?
**A.** 8.70

**Q.** With `N#Cc1cccc2c(N[C@@H]3C[C@H](C(O)c4ccc(F)c(F)c4)[C@@H](O)[C@H]3O)ncnc12` (some centres not stated) as the molecule, how does the pIC50 read?
**A.** < 3.70

**Q.** With `O[C@@H]1[C@H](O)[C@H]([C@H](O)c2ccc(F)c(F)c2)C[C@H]1Nc1ncnc2[nH]ccc12` as the molecule, how does the pIC50 read?
**A.** 5.24

**Q.** With `CN(c1ncnc(N)n1)[C@@H]1C[C@@H]([C@H](O)c2ccc(F)c(F)c2)[C@@H](O)[C@H]1O` as the molecule, how does the pIC50 read?
**A.** 4.80

**Q.** With `Cc1ncnc2c1ccn2[C@@H]1C[C@H](Oc2ccc(F)c3c2CNC[C@@H]3C)[C@@H](O)[C@H]1O` as the molecule, how does the pIC50 read?
**A.** 8.70

**Q.** With `Cc1ncnc2c1ccn2[C@@H]1C[C@H](Oc2cc(C(F)F)c(F)c3c2CNCC3)C(O)=C1O` as the molecule, how does the pIC50 read?
**A.** 9.00

**Q.** With `Nc1ncnc2c1ccn2[C@@H]1C[C@H]([C@@H](O)c2ccc(Cl)c(F)c2)[C@@H](O)[C@H]1O` as the molecule, how does the pIC50 read?
**A.** 6.24

**Q.** With `Cc1ncnc2c1ccn2C1C[C@H](Oc2cccc3c2CNCC3)[C@@H](O)[C@H]1O` (some centres not stated) as the molecule, how does the pIC50 read?
**A.** 9.00

**Q.** With `Cc1cccc(CC(O)[C@H]2C[C@@H](n3ccc4c(C)ncnc43)[C@H](O)[C@@H]2O)n1` (some centres not stated) as the molecule, how does the pIC50 read?
**A.** < 3.70

**Q.** With `Cc1ncnc2c1ccn2[C@@H]1C[C@H](Oc2ccc(F)c3c2CNC[C@H]3C)[C@@H](O)[C@H]1O` as the molecule, how does the pIC50 read?
**A.** 9.00

**Q.** With `CN(c1cc(N)ncn1)[C@@H]1C[C@@H]([C@H](O)c2ccc(F)c(F)c2)[C@@H](O)[C@H]1O` as the molecule, how does the pIC50 read?
**A.** 4.77

**Q.** With `N#Cc1cccc2c(N[C@H]3C[C@H](C(O)c4ccc(F)c(F)c4)[C@@H](O)[C@H]3O)ncnc12` (some centres not stated) as the molecule, how does the pIC50 read?
**A.** < 3.70

**Q.** With `CN(c1ccncn1)[C@@H]1C[C@H]([C@@H](O)c2ccc(F)c(F)c2)[C@@H](O)[C@H]1O` as the molecule, how does the pIC50 read?
**A.** 6.33

**Q.** With `Cc1cc(N[C@H]2C[C@@H](Oc3ccccc3C#N)[C@H](O)[C@@H]2O)ncn1` as the molecule, how does the pIC50 read?
**A.** < 3.70

**Q.** With `Cc1nc(N)nc2c1ccn2[C@@H]1C[C@H]([C@@H](O)c2ccc(F)c(F)c2)[C@@H](O)[C@H]1O` as the molecule, how does the pIC50 read?
**A.** 8.30

**Q.** With `CO[C@@H]1C[C@H](n2ccc3c(C)ncnc32)[C@H](O)[C@@H]1O` as the molecule, how does the pIC50 read?
**A.** 5.67

**Q.** With `Cc1ncnc2c1ccn2[C@@H]1C[C@@H]([C@H](CN)c2ccc(F)cc2)[C@@H](O)[C@H]1O` as the molecule, how does the pIC50 read?
**A.** 6.04

— ChEMBL document CHEMBL5727820, “Substituted carbonucleoside derivatives useful as anticancer agents” (2020)
